Measured values reported in patent publication US8084262B2, “Biomarker for farnesyl pathway” (Hoffmann-La Roche Inc., priority 2006, dated 2011).
Where two headings read alike, the source gives them in different places.

Tests used:
[1] = tested on: N-acetyl-felinine; test: Determination of N-acetyl-felinine in rat urine by NMR; assay type: in vivo, Sprague Dawley rats; conditions: for N-acetyl-felinine levels in urine: in a given time interval after stimulation
Protocol: (§1) Urine samples were collected in metabolism cages at 0 to 4° C. (automatically refrigerated by a Tecniplast sampling/cooling unit) at the intervals given in the sampling schedule below into sample tubes containing 1 ml of an aqueous Cs-azide (1%) solution. Before aliquoting, urine volumes were determined.
(§2) Immediately after reaching the end of the sampling period, the volume was determined and the samples were centrifuged at 3000 u/min [500 g] for 10 min.
N-acetyl-felinine was identified in urine samples on basis of 1D and 2D NMR spectra. Spectra were acquired at 600.13 MHz on a Bruker AV 600 spectrometer and at 500.13 MHz on Bruker DRX-500 spectrometer. Urine samples were prepared and measured and the data evaluated as described elsewhere (Keun, H. C.; Ebbels, T. M. D.; Antti, H.; Bollard, M. E.; Beckonert, O.; Schlotterbeck, G.; Senn, H,; Niederhauser, U.; Holmes, E.; Lindon, J. C.; Nicholson, J. K. Chem. Res. Toxicol. 2002, 15, 1380-1386).
Aliquots of 400 microliter urine are transferred into well plates. For adjustment of urinary pH 200 microliter of buffer [ca. 0.2M Na2HPO4/NaH2PO4, ca. 1 mM TSP (3-trimethylsilyl-D4-propionic acid), ca. 3 mM sodium azide] is added to each well. Prepared well plates are centrifuged at ca. 3,000 rpm at 4° C. for 5-10 min to remove insoluble material.
^1H NMR spectra for Metabonomic analysis (e.g. at 500 Mhz, 64 k data points, 12019.2 Hz spectral width) were measured at 300K. The water resonance were suppressed by use of standard pulse-sequences (e.g noesyprld, irradiation for 2 s relaxation delay and during 100 ms mixing time). For each sample as many transients were added as is needed to provide spectra high enough in signal to noise. Fourier transformation was done by use of a matched window function (e.g. lb=1) followed by (automatic or manual) phasing and base-line correction. Referencing was done with respect to TSP added (defined as 0.0 ppm). Acquisition and processing of spectra was performed with Bruker XWinNMR 3.5 software.
Each spectrum recorded was reduced in size for simplified statistical analysis (e.g. For NMR spectra recorded according to the standard protocol 245 variables will be calculated by equidistant integration between 0.2-10.0 ppm). Regions containing misleading information (e.g. solvents, urea cover a region for 4.5 up to 6.0 ppm) were excluded or merged (e.g. the region from 2.66 to 2.74 ppm serves as a value indicative for citrate) prior to analysis. To take account variations in urine concentration, all data-reduced spectra were normalised to a constant integrated intensity of 100 units.
Thereby widespread PCA (principal component analysis) is used for identifying significant patterns of signals and assigning these patterns to samples and groups of samples. PLS (projection to latent structures, partial least squares) is also used for finding significant patterns of signals, whereby in contrast to PCA the information of dose-groups is used for boosting the identification of significant changes. The assignment is performed with the help of an internal data base of metabolites, with the help of pathway mapping procedures (KEGG database) and with the help of a spectroscopic structure elucidation for unknown metabolites when feasible.

[2] = tested on: N-acetyl-felinine; test: Determination of N-acetyl-felinine in rat urine by LC-MS; assay type: in vivo, Sprague Dawley rats; conditions: for LC-MS signal for expected mass of N-acetyl felinine (m/z 248 in neg. mode): rat urine, 96 h after dosing
Protocol: as §1, §2
LC-MS analysis of urine was performed using an Agilent 1100 HPLC system coupled to a Bruker Esquire 3000+ mass spectrometer equipped with an electrospray interface. Urine samples were diluted 4-fold with distilled water and 2 μl injections were made from a well plate maintained at 4° C. into a 150 mm×3.9 mm Waters Atlantis dC18 3 μm HPLC column maintained in an oven at 30° C. The column was eluted at a flow rate of 1 ml/min; mobile phase A consisted of 20 mM ammonium acetate, and mobile phase B of acetonitrile. […] The mass spectrometer was operated in negative mode with a dry gas flow of 81/min, nebulizer pressure of 27 psi and dry temperature of 330° C. The instrument was set to acquire over the mass range m/z 50-800. N-acetyl-felinine was found under this conditions at a retention time of 9.6 min with the expected m/z 248 (see FIG. 8) in samples of rats dosed with Zoledronate.

[3] = tested on: kidney and liver; conditions: rat, in vivo
[4] = tested on: kidney and liver; test: Histopathology of treated animals (kidney and liver toxicity)

SMILES | N-acetyl-felinine levels in urine [1] | Time course of bin 1.32 ppm (Methyl signals of N-Acetyl felinine) relative to creatinine ([1]; rat urine NMR, FIG. 3) | LC-MS signal for expected mass of N-acetyl felinine (m/z 248 in neg. mode) ([2]; 3 mg/kg, FIG. 9) | kidney and liver toxicity in histopathology [3] | N-acetyl-felinine in urine NMR spectra ([1]; 1D NMR, signal at 1.32 ppm, FIG. 5) | NMR signal at 1.32 ppm in urine ([1]; 96 h after dosing, FIG. 5) | N-acetyl-felinine in urine by LC-MS ([2]; negative mode, urine samples of dosed rats) | LC-MS signal for expected mass of N-acetyl felinine (m/z 248 in neg. mode) ([2]; 6 mg/kg, FIG. 8) | kidney and liver toxicity in histopathology [4]
CCCCCN(C)CCC(O)(P(=O)(O)O)P(=O)(O)O [Ibandronate] | undetectable | no increase | No signal found | not so |  |  |  |  | 
O=P(O)(O)C(O)(Cn1ccnc1)P(=O)(O)O [Zoledronate] | high levels |  |  |  | found | New signal at 1.32 ppm visible | found | Strong signal found | kidney and liver toxicity was observed
